The values below come from patent publication EP2857388A1, “Azoles containing sulfone” (Grünenthal GmbH, priority 2013, dated 2015).

Molecules are shown by their SMILES.

The assay deals with T1, human B1R (Homo sapiens, UniProt P46663).
T1 construct: expressed in transfected cells; host or cells: CHO K1 cells (Chinese Hamster Ovary), stably transfected
T1 sequence (P46663 1-353): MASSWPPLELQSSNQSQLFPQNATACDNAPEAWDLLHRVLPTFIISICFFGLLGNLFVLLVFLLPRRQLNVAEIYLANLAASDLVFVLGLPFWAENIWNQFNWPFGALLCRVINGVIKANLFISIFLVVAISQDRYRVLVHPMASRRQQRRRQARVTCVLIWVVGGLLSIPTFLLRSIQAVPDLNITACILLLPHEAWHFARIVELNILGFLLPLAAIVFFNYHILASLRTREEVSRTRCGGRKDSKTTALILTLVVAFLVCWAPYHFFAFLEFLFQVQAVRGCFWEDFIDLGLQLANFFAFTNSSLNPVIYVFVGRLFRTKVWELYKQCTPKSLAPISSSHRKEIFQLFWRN
Briefly: Functional assay at bradykinin receptor 1 (B1R): Ca2+ fluorescence (Fluo-4) in FLIPR/Novostar, antagonist mode. The note with it: test substance 10 µM; CHO K1 cells stably transfected with human B1R gene (hB1R-Zellen); agonist Lys-Des-Arg9-Bradykinin at EC80; % inhibition relative to maximal achievable inhibition; read-out: % Inhibierung (human B1R) bei 10 µM. The format is cell-based. The method, boiled down: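 CHO K1 cells stably expressing human B1R were loaded with Fluo-4 and preincubated 6–20 min with test compound before Lys-Des-Arg9-bradykinin at its EC80. Peak fluorescence (ex 488/em 540 nm) gave % inhibition versus maximal inhibition; IC50 from several concentrations, n=2 or 3.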

With `COc1cc(C)c(S(=O)(=O)Cc2noc(C(=O)NCC3CCC(c4ccncc4)CC3)n2)c(C)c1` (stereo not shown) [SC-30, 3-[[(4-Methoxy-2,6-dimethyl-phenyl)sulfonyl]-methyl]-N-[(4-pyridin-4-yl-cyclohexyl)-methyl]-[1,2,4]oxadiazol-5-carbonsäure amid], the inhibition at 10 µM came to 98%.
Regarding `COc1cc(C)c(S(=O)(=O)Cc2noc(C(=O)NC3CCC(c4ccncc4)CC3(C)C)n2)c(C)c1` (stereo not shown) [SC-31, N-(2,2-Dimethyl-4-pyridin-4-yl-cyclohexyl)-3-[[(4-methoxy-2,6-dimethyl-phenyl)sulfonyl]-methyl]-[1,2,4]oxadiazol-5-carbonsäure amid], the inhibition at 10 µM was found to be 97%.
For the compound `COc1cc(C)c(S(=O)(=O)Cc2noc(CC(=O)NC3CCC(c4ccncc4)CC3(C)C)n2)c(C)c1` (stereo not shown) [SC-32, N-(2,2-Dimethyl-4-pyridin-4-yl-cyclohexyl)-2-[3-[[(4-methoxy-2,6-dimethyl-phenyl)sulfonyl]-methyl]-[1,2,4]oxadiazol-5-yl]-acetamid], the inhibition at 10 µM came to 98%.
For `COc1cc(C)c(S(=O)(=O)Cc2noc(CC(=O)N(C)C3CCC4(CCN(C)CC4)CC3(C)C)n2)c(C)c1` (stereo not shown) [SC-33, 2-[3-[[(4-Methoxy-2,6-dimethyl-phenyl)sulfonyl]-methyl]-[1,2,4]oxadiazol-5-yl]-N-methyl-N-(4,4,9-trimethyl-9-azaspiro[5.5]undecan-3-yl)-acetamid] the value was 100%; for `COc1cc(C)c(S(=O)(=O)Cc2noc(CC(=O)NC3CCC(O)CC3(C)C)n2)c(C)c1` (stereo not shown) [SC-35, N-(4-Hydroxy-2,2-dimethyl-cyclohexyl)-2-[3-[[(4-methoxy-2,6-dimethyl-phenyl)sulfonyl]-methyl]-[1,2,4]oxadiazol-5-yl]-acetamid], 100%; for `COc1cc(C)c(S(=O)(=O)Cc2noc(CC(=O)NC3CCOCC3(C)C)n2)c(C)c1` (stereo not shown) [SC-36, N-(3,3-Dimethyl-tetrahydro-pyran-4-yl)-2-[3-[[(4-methoxy-2,6-dimethyl-phenyl)sulfonyl]-methyl]-[1,2,4]oxadiazol-5-yl]-acetamid], 98%.
As for `COc1cc(C)c(S(=O)(=O)Cc2noc(CC(=O)NC3CCC(c4ccncc4)CC3)n2)c(C)c1` (stereo not shown) [SC-37, 2-[3-[[(4-Methoxy-2,6-dimethyl-phenyl)sulfonyl]-methyl]-[1,2,4]oxadiazol-5-yl]-N-(4-pyridin-4-yl-cyclohexyl)-acetamid], the inhibition at 10 µM turned out to be 100%.
The value for `COc1cc(C)c(S(=O)(=O)Cc2noc(CC(=O)NC3CCN(C4CCOCC4)CC3(C)C)n2)c(C)c1` (stereo not shown) [SC-39, N-(3,3-Dimethyl-1-tetrahydro-pyran-4-yl-piperidin-4-yl)-2-[3-[[(4-methoxy-2,6-dimethyl-phenyl)sulfonyl]-methyl]-[1,2,4]oxadiazol-5-yl]-acetamid] was 100%; that for `COc1cc(C)c(S(=O)(=O)Cc2noc(CC(=O)NC3CCC(c4ccnc(OC)c4)CC3(C)C)n2)c(C)c1` (stereo not shown) [SC-40, 2-[3-[[(4-Methoxy-2,6-dimethyl-phenyl)sulfonyl]-methyl]-[1,2,4]oxadiazol-5-yl]-N-[4-(2-methoxy-pyridin-4-yl)-2,2-dimethyl-cyclohexyl]-acetamid] was 100%.
Take `COc1cc(C)c(S(=O)(=O)Cc2noc(CC(=O)N3CCC(c4ccncc4)CC3)n2)c(C)c1` [SC-41, 2-[3-[[(4-Methoxy-2,6-dimethyl-phenyl)sulfonyl]-methyl]-[1,2,4]oxadiazol-5-yl]-1-(4-pyridin-4-yl-piperidin-1-yl)-ethanon]: the inhibition at 10 µM worked out at 97%.
For `COc1cc(C)c(S(=O)(=O)Cc2noc(CC(=O)N(C)C3CCN(c4cc(C)nc(C)n4)CC3)n2)c(C)c1` [SC-42, N-[1-(2,6-Dimethyl-pyrimidin-4-yl)-piperidin-4-yl]-2-[3-[[(4-methoxy-2,6-dimethyl-phenyl)sulfonyl]-methyl]-[1,2,4]oxadiazol-5-yl]-N-methyl-acetamid] the value was 99%.
For `COc1cc(C)c(S(=O)(=O)Cc2noc(C(=O)N(C)[C@H]3CCC[C@@H](N4CCN(C)CC4)C3)n2)c(C)c1` [SC-43, 3-[[(4-Methoxy-2,6-dimethyl-phenyl)sulfonyl]-methyl]-N-methyl-N-[(1S,3R)-3-(4-methyl-piperazin-1-yl)-cyclohexyl]-[1,2,4]oxadiazol-5-carbonsäure amid] the value was 100%; for `COc1cc(C)c(S(=O)(=O)Cc2noc(CC(=O)N(C)[C@H]3CCC[C@@H](N4CCN(C)CC4)C3)n2)c(C)c1` [SC-44, 2-[3-[[(4-Methoxy-2,6-dimethyl-phenyl)sulfonyl]-methyl]-[1,2,4]oxadiazol-5-yl]-N-methyl-N-[(1S,3R)-3-(4-methyl-piperazin-1-yl)-cyclohexyl]-acetamid], 100%; for `COc1cc(C)c(S(=O)(=O)Cc2noc(CC(=O)N(C)C3CCN(C(=O)CCN4CCCCC4)CC3)n2)c(C)c1` [SC-46, 2-[3-[[(4-Methoxy-2,6-dimethyl-phenyl)sulfonyl]-methyl]-[1,2,4]oxadiazol-5-yl]-N-methyl-N-[1-(3-piperidin-1-yl-propanoyl)-piperidin-4-yl]-acetamid], 100%.
Turning to `Cc1cccc(Cl)c1S(=O)(=O)Cc1noc(C(=O)N(C)[C@H]2CCC[C@@H](N3CCN(C)CC3)C2)n1` [SC-49, 3-[[(2-Chlor-6-methyl-phenyl)sulfonyl]-methyl]-N-methyl-N-[(1S,3R)-3-(4-methyl-piperazin-1-yl)-cyclohexyl]-[1,2,4]oxadiazol-5-carbonsäure amid], the inhibition at 10 µM was determined as 99%.
For `Cc1cccc(Cl)c1S(=O)(=O)Cc1noc(CC(=O)N(C)[C@H]2CCC[C@@H](N3CCN(C)CC3)C2)n1` [SC-50, 2-[3-[[(2-Chlor-6-methyl-phenyl)sulfonyl]-methyl]-[1,2,4]oxadiazol-5-yl]-N-methyl-N-[(1S,3R)-3-(4-methyl-piperazin-1-yl)-cyclohexyl]-acetamid] the value was 89%; for `COc1cc(C)c(S(=O)(=O)Cc2noc(CC(=O)N3CCN(Cc4ccc(OC)nc4)CC3)n2)c(C)c1` [SC-51, 2-[3-[[(4-Methoxy-2,6-dimethyl-phenyl)sulfonyl]-methyl]-[1,2,4]oxadiazol-5-yl]-1-[4-[(6-methoxy-pyridin-3-yl)-methyl]-piperazin-1-yl]-ethanon], 100%; for `COc1cc(C)c(S(=O)(=O)Cc2noc(CC(=O)N3CCN(Cc4ccnc(N5CCCC5)c4)CC3)n2)c(C)c1` [SC-52, 2-[3-[[(4-Methoxy-2,6-dimethyl-phenyl)sulfonyl]-methyl]-[1,2,4]oxadiazol-5-yl]-1-[4-[(2-pyrrolidin-1-yl-pyridin-4-yl)-methyl]-piperazin-1-yl]-ethanon], 100%.
The value for `COc1cc(C)c(S(=O)(=O)Cc2noc(CC(=O)N(C)C3CCN(Cc4ccc(OC)nc4)CC3)n2)c(C)c1` [SC-55, 2-[3-[[(4-Methoxy-2,6-dimethyl-phenyl)sulfonyl]-methyl]-[1,2,4]oxadiazol-5-yl]-N-[1-[(6-methoxy-pyridin-3-yl)-methyl]-piperidin-4-yl]-N-methyl-acetamid] was 100%.
For `COc1cc(C)c(S(=O)(=O)Cc2noc(CC(=O)N(C)C3CCN(Cc4ccnc(N5CCCC5)c4)CC3)n2)c(C)c1` [SC-57, 2-[3-[[(4-Methoxy-2,6-dimethyl-phenyl)sulfonyl]-methyl]-[1,2,4]oxadiazol-5-yl]-N-methyl-N-[1-[(2-pyrrolidin-1-yl-pyridin-4-yl)-methyl]-piperidin-4-yl]-acetamid] the value was 100%.
For `COc1cc(C)c(S(=O)(=O)Cc2noc(CC(=O)N(C)C3CCC(N4CCN(C)CC4)CC3)n2)c(C)c1` (stereo not shown) [SC-58, 2-[3-[[(4-Methoxy-2,6-dimethyl-phenyl)sulfonyl]-methyl]-[1,2,4]oxadiazol-5-yl]-N-methyl-N-[4-(4-methyl-piperazin-1-yl)-cyclohexyl]-acetamid], the inhibition at 10 µM worked out at 100%.
The value for `COc1cc(C)c(S(=O)(=O)Cc2noc(C(=O)N3CCN(Cc4ccc(OC)nc4)CC3)n2)c(C)c1` [SC-59, [3-[[(4-Methoxy-2,6-dimethyl-phenyl)sulfonyl]-methyl]-[1,2,4]oxadiazol-5-yl]-[4-[(6-methoxy-pyridin-3-yl)-methyl]-piperazin-1-yl]-methanon] was 100%.
In the case of `COc1cc(C)c(S(=O)(=O)Cc2noc(C(=O)N3CCN(Cc4ccnc(N5CCCC5)c4)CC3)n2)c(C)c1` [SC-60, [3-[[(4-Methoxy-2,6-dimethyl-phenyl)sulfonyl]-methyl]-[1,2,4]oxadiazol-5-yl]-[4-[(2-pyrrolidin-1-yl-pyridin-4-yl)-methyl]-piperazin-1-yl]-methanon], the inhibition at 10 µM amounted to 99%.
As to `COc1cc(C)c(S(=O)(=O)Cc2noc(C(=O)N3CCN(Cc4ccc(N5CCCC5)nc4)CC3)n2)c(C)c1` [SC-61, [3-[[(4-Methoxy-2,6-dimethyl-phenyl)sulfonyl]-methyl]-[1,2,4]oxadiazol-5-yl]-[4-[(6-pyrrolidin-1-yl-pyridin-3-yl)-methyl]-piperazin-1-yl]-methanon], the inhibition at 10 µM was found to be 100%.
For `COc1cc(C)c(S(=O)(=O)Cc2noc(CC(=O)N3CCN(Cc4ccc(N5CCCC5)nc4)CC3)n2)c(C)c1` [SC-62, 2-[3-[[(4-Methoxy-2,6-dimethyl-phenyl)sulfonyl]-methyl]-[1,2,4]oxadiazol-5-yl]-1-[4-[(6-pyrrolidin-1-yl-pyridin-3-yl)-methyl]-piperazin-1-yl]-ethanon] the value was 100%.
